In brackets after ≈: the same amount, converted by molar mass.
What was measured:
Format in all cases: functional
[1] = test system: Enterococcus faecium; assay: Antimicrobial activity against erythromycin-, streptomycin-resistant Enterococcus faecium A expressing hylEfm gene by agar dilution method
[2] = test system: Enterococcus faecium; assay: Antimicrobial activity against fusidic acid-, rifampin-resistant Enterococcus faecium TX1330RF by agar dilution method
[3] = test system: Enterococcus faecium; assay: Antimicrobial activity against erythromycin-, streptomycin-resistant Enterococcus faecium TX1330RF-A1 conjugant expressing hylEfm gene by agar dilution method
[4] = test system: Enterococcus faecium; assay: Antimicrobial activity against vancomycin-, gentamicin-resistant Enterococcus faecium B expressing hylEfm gene by agar dilution method
[5] = test system: Enterococcus faecium; assay: Antimicrobial activity against erythromycin-, streptomycin-, vancomycin-, gentamicin-resistant Enterococcus faecium TX1330RF-B1 conjugant expressing hylEfm gene by agar dilution method
[6] = test system: Enterococcus faecium; assay: Antimicrobial activity against vancomycin-, gentamicin-resistant Enterococcus faecium TX1330RF-B2 conjugant expressing hylEfm gene by agar dilution method
[7] = test system: Enterococcus faecium; assay: Antimicrobial activity against vancomycin-resistant Enterococcus faecium C expressing hylEfm gene by agar dilution method
[8] = test system: Enterococcus faecium; assay: Antimicrobial activity against pbp5 gene-deficient fusidic acid-, rifampin-resistant Enterococcus faecium D344SRF expressing hylEfm gene by agar dilution method
[9] = test system: Enterococcus faecium; assay: Antimicrobial activity against pbp5 gene-deficient vancomycin-, fusidic acid-, rifampin-resistant Enterococcus faecium D344SRF-C6 expressing hylEfm gene by agar dilution method

CC1(C)S[C@@H]2[C@H](NC(=O)[C@H](N)c3ccccc3)C(=O)N2[C@H]1C(=O)O [AMPICILLIN]
MIC [1]: 4 µg/mL (≈ 11.4 µM)
MIC [2]: 1 µg/mL (≈ 2.86 µM)
MIC [3]: 1 µg/mL (≈ 2.86 µM)
MIC [4]: 256 µg/mL (≈ 733 µM)
MIC [5]: 1 µg/mL (≈ 2.86 µM)
MIC [6]: 1 µg/mL (≈ 2.86 µM)
MIC [7]: 128 µg/mL (≈ 366 µM)
MIC [8]: < 0.25 µg/mL
MIC [9]: < 0.25 µg/mL

CC[C@H]1OC(=O)[C@H](C)[C@@H](O[C@H]2C[C@@](C)(OC)[C@@H](O)[C@H](C)O2)[C@H](C)[C@@H](O[C@@H]2O[C@H](C)C[C@H](N(C)C)[C@H]2O)[C@](C)(O)C[C@@H](C)C(=O)[C@H](C)[C@@H](O)[C@]1(C)O [ERYTHROMYCIN]
MIC [1]: > 512 µg/mL
MIC [2]: 0.5 µg/mL (≈ 0.681 µM)
MIC [3]: > 512 µg/mL
MIC [4]: > 512 µg/mL
MIC [5]: > 512 µg/mL
MIC [6]: 0.25 µg/mL (≈ 0.341 µM)
MIC [7]: > 512 µg/mL
MIC [8]: 512 µg/mL (≈ 698 µM)
MIC [9]: > 512 µg/mL

CN[C@H](CC(C)C)C(=O)N[C@H]1C(=O)N[C@@H](CC(N)=O)C(=O)N[C@H]2C(=O)N[C@H]3C(=O)N[C@H](C(=O)N[C@H](C(=O)O)c4cc(O)cc(O)c4-c4cc3ccc4O)[C@H](O)c3ccc(c(Cl)c3)Oc3cc2cc(c3O[C@@H]2O[C@H](CO)[C@@H](O)[C@H](O)[C@H]2O[C@H]2C[C@](C)(N)[C@H](O)[C@H](C)O2)Oc2ccc(cc2Cl)[C@H]1O [VANCOMYCIN]
MIC [4]: 512 µg/mL (≈ 353 µM)
MIC [6]: 256 µg/mL (≈ 177 µM)
MIC [7]: 256 µg/mL (≈ 177 µM)

Reference: ChEMBL document CHEMBL1649239, “Cotransfer of antibiotic resistance genes and a hylEfm-containing virulence plasmid in Enterococcus faecium” (2009)
